Our source for the AC50 values is ChEMBL document CHEMBL5291721, “A preclinical secondary pharmacology resource illuminates target-adverse drug reaction associations of marketed drugs” (Nat Commun, 2023).

Targets include Mu-type opioid receptor (Homo sapiens, UniProt P35372); Cannabinoid receptor 1 (Homo sapiens, UniProt P21554); Melanocortin receptor 4 (Homo sapiens, UniProt P32245); Vasopressin V1a receptor (Homo sapiens, UniProt P37288).
The target of test [1] is Delta-type opioid receptor (Homo sapiens, UniProt P41143).
The target of test [2] is Gamma-aminobutyric acid receptor subunit alpha-1 (Rattus norvegicus, UniProt P62813). Format: functional.
In test [3] the target is T1, 5-hydroxytryptamine receptor 2C (Homo sapiens, UniProt P28335).
T1 sequence (P28335 whole entry): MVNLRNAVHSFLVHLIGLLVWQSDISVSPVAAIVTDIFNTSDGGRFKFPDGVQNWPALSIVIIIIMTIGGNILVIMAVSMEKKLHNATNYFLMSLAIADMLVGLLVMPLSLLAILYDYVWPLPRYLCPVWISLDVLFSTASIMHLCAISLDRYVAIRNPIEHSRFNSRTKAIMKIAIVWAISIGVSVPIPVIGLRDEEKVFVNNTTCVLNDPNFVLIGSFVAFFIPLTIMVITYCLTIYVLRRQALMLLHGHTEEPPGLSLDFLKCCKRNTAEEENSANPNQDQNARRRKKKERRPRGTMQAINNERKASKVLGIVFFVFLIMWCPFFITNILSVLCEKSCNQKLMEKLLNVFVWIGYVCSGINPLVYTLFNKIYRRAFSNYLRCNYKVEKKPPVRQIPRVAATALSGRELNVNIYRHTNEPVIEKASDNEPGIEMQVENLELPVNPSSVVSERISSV

Another test has as its target Histamine H2 receptor (Homo sapiens, UniProt P25021). Format: functional, cell-based.
The target in a further test is T2, Adenosine receptor A1 (Homo sapiens, UniProt P30542).
T2 sequence (P30542 whole entry): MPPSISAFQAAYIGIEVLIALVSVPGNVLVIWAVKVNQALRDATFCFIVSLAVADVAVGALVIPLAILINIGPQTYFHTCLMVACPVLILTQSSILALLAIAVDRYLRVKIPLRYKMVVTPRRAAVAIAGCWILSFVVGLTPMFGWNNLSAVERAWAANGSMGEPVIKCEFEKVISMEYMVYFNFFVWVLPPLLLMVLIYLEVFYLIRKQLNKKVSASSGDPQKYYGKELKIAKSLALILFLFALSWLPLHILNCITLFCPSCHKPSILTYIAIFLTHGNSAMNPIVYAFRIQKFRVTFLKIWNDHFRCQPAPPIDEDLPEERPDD

Test [4] deals with T3, Alpha-2C adrenergic receptor (Homo sapiens, UniProt P18825).
T3 sequence (P18825 whole entry): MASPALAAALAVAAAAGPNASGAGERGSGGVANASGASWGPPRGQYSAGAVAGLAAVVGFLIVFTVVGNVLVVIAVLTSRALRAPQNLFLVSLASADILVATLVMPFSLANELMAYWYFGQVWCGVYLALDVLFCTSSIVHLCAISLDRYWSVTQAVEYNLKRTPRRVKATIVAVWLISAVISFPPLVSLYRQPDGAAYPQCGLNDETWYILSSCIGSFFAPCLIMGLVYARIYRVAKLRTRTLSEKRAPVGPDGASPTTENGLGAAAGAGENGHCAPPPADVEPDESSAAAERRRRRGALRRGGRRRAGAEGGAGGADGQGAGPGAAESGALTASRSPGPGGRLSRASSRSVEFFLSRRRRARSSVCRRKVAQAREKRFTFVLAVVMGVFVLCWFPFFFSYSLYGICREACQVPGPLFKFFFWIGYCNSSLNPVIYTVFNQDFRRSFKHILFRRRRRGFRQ
Type of test: functional.

In test [5] the target is Neuronal acetylcholine receptor subunit alpha-4 (Homo sapiens, UniProt P43681).
Test [6] has as its target T4, Alpha-1A adrenergic receptor (Homo sapiens, UniProt P35348).
T4 sequence (P35348 whole entry): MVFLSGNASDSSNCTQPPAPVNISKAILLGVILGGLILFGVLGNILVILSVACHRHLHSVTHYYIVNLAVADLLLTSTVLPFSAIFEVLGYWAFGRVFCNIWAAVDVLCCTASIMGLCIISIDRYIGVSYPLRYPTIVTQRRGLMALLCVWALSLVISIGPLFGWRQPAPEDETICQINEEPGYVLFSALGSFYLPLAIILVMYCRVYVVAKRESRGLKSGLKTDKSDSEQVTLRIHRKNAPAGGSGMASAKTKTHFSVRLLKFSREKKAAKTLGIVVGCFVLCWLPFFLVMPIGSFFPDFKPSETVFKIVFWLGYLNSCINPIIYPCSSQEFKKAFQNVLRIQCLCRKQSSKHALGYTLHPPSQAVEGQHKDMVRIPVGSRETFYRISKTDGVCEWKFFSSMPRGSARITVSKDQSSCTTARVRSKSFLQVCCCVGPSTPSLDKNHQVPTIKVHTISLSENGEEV
Format: functional, cell-based.

Broadly, the AC50 is the concentration giving half of the maximal activity seen.

Bounds are passed on as bounds.
Also: assay procedure not described here.

Sequence of Gamma-aminobutyric acid receptor subunit alpha-1 (P62813 whole entry): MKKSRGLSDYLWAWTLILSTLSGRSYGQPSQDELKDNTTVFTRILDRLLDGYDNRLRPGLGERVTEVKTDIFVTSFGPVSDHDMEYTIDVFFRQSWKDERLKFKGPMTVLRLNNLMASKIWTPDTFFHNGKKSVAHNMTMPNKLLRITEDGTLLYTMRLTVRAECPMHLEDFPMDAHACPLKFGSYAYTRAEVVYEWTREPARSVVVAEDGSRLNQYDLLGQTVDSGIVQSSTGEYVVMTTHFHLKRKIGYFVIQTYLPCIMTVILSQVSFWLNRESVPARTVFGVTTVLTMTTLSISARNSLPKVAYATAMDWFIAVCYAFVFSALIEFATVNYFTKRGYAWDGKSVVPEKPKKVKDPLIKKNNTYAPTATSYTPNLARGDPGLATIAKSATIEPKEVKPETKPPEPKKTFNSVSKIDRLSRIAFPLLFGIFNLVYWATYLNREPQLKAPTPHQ
Sequence of Cannabinoid receptor 1 (P21554 whole entry): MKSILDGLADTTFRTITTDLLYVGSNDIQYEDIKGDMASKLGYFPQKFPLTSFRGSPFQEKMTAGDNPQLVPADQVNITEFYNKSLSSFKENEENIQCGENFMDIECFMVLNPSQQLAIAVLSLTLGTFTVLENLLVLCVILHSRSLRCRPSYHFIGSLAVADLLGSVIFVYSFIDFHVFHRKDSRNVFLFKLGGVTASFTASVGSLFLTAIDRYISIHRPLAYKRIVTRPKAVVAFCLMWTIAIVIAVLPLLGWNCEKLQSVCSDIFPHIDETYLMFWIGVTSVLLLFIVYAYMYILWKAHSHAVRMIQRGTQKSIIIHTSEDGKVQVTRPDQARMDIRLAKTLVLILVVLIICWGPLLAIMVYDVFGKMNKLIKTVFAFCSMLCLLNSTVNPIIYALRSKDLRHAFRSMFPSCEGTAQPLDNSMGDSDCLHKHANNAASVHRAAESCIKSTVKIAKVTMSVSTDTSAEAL
Sequence of Histamine H2 receptor (P25021 whole entry): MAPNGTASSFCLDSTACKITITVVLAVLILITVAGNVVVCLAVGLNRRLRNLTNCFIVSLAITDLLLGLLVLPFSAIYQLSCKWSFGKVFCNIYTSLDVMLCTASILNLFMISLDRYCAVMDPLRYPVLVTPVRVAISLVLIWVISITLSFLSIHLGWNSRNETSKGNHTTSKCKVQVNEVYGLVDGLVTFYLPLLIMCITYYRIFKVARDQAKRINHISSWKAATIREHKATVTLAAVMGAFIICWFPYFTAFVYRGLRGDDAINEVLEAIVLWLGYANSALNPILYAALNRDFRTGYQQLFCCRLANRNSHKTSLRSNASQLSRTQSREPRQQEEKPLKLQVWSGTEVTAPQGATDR
Sequence of Mu-type opioid receptor (P35372 whole entry): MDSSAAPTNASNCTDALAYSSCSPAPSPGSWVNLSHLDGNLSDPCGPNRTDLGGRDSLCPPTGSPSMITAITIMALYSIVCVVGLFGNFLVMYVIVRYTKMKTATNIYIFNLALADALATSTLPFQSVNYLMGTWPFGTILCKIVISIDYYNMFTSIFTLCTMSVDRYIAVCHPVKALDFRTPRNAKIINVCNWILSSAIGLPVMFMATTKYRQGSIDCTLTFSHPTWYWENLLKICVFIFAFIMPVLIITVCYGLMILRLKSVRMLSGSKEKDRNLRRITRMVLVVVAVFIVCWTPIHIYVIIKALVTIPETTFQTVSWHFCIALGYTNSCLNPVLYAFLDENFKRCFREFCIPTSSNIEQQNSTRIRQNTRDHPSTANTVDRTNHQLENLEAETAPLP
Sequence of Melanocortin receptor 4 (P32245 whole entry): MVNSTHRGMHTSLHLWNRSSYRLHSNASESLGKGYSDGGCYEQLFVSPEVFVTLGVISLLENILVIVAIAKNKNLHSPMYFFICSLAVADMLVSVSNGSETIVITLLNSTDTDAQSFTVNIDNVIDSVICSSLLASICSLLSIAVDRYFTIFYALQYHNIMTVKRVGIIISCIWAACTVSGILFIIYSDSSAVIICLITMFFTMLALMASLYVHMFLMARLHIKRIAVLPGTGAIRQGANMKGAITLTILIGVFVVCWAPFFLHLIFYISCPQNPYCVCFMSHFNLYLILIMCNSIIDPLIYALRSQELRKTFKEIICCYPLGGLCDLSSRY
Sequence of Neuronal acetylcholine receptor subunit alpha-4 (P43681 whole entry): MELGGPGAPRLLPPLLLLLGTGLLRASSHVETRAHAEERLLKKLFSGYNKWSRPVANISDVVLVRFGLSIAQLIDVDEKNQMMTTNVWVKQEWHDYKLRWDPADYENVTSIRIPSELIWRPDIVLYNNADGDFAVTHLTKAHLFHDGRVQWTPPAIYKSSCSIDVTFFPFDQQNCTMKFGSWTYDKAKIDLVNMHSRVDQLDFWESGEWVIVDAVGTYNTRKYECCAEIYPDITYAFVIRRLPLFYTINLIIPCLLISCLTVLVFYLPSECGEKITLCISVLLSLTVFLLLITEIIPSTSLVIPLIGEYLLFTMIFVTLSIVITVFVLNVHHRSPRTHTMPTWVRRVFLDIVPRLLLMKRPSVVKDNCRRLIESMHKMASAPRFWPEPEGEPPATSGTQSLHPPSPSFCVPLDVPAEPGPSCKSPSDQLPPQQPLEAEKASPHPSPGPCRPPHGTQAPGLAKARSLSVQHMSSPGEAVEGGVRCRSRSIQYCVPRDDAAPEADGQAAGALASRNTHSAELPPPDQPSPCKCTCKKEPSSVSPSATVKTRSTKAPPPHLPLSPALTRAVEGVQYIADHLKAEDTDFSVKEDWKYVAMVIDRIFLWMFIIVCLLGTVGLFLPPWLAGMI
Sequence of Vasopressin V1a receptor (P37288 whole entry): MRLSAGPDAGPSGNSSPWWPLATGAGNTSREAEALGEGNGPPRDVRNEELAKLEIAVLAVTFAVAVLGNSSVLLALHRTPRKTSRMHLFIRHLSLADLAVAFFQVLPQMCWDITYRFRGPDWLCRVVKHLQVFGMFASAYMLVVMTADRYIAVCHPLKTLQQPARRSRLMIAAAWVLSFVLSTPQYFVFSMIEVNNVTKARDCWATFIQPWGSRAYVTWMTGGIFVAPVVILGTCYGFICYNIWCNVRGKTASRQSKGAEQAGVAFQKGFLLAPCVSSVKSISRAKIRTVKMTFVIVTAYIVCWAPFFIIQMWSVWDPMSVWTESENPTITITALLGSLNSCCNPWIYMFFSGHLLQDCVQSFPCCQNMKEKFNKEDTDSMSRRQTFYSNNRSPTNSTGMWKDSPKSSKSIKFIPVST
Sequence of Delta-type opioid receptor (P41143 whole entry): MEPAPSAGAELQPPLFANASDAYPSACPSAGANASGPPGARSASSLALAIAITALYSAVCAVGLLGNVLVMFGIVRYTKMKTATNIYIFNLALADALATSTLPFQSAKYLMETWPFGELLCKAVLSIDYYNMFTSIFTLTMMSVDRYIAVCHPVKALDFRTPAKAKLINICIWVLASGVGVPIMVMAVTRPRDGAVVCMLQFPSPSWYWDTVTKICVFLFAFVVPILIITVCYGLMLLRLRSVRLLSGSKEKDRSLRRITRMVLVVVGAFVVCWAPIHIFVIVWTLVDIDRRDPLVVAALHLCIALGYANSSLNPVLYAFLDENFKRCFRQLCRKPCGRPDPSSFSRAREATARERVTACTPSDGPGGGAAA

For `COc1ccc(/C=C/C(=O)Nc2ccccc2C(=O)O)cc1OC`, the AC50 (on Mu-type opioid receptor; in test [1]; in test [2]; in test [3]; at Histamine H2 receptor; on Adenosine receptor A1) was over 30 µM throughout. Moreover, the AC50 (in [4]; at Cannabinoid receptor 1; in test [5]) was over 30 µM in each case.

As to `NCCCC(O)(P(=O)(O)O)P(=O)(O)O` [ALENDRONIC ACID], the AC50 is over 10 µM in test [1]; over 10 µM in [2]; over 30 µM in test [3]; over 10 µM on Histamine H2 receptor; over 30 µM on Adenosine receptor A1; over 30 µM on Melanocortin receptor 4. For the same compound, the AC50 (in test [4]; at Cannabinoid receptor 1; in test [5]; on Vasopressin V1a receptor) was over 10 µM in each case.

In the case of `NS(=O)(=O)c1cc2c(cc1C(F)(F)F)NC(Cc1ccccc1)NS2(=O)=O` (stereo not drawn) [BENDROFLUMETHIAZIDE], the AC50 at Mu-type opioid receptor was over 30 µM; in [1] it was over 30 µM; in test [2], over 10 µM; in [3] it was over 30 µM; at Histamine H2 receptor, over 10 µM; at Adenosine receptor A1, over 10 µM. For the same compound, the AC50 (at Melanocortin receptor 4; in [4]; on Cannabinoid receptor 1; in [5]; on Vasopressin V1a receptor) was over 10 µM each time.

Regarding `CC(C)(C)NCC(O)c1cc(Cl)c(N)c(Cl)c1` (stereo not drawn) [CLENBUTEROL], the AC50 (in test [1]; in test [2]; in [3]; on Histamine H2 receptor; on Adenosine receptor A1; at Melanocortin receptor 4) was over 30 µM in each case. Moreover, the half-maximal activity concentration (AC50) (in test [4]; at Cannabinoid receptor 1; in test [5]; in test [6]) was over 30 µM in each case.

Turning to `COC(=O)N[C@@H](C)CNc1nccc(-c2cn(C(C)C)nc2-c2cc(Cl)cc(NS(C)(=O)=O)c2F)n1` [ENCORAFENIB], the AC50 in test [1] is over 30 µM; in test [2], 23.1 µM; in test [3], over 30 µM; on Histamine H2 receptor, over 30 µM; on Adenosine receptor A1, over 30 µM; at Melanocortin receptor 4 it was over 30 µM. The AC50 (in test [4]; on Cannabinoid receptor 1; in [5]; on Vasopressin V1a receptor) was over 30 µM in each case.

Take `Clc1ccc2c(c1)C(c1ccccc1)=NCc1nncn1-2` [ESTAZOLAM]: the AC50 is over 30 µM at Mu-type opioid receptor; over 30 µM in test [1]; 0.0336 µM in [2]; over 30 µM in [3]; over 10 µM at Histamine H2 receptor; over 30 µM on Adenosine receptor A1. Moreover, the AC50 at Melanocortin receptor 4 is over 30 µM; in [4] it was over 10 µM; in [5], over 10 µM; in test [6], over 30 µM; on Vasopressin V1a receptor, over 30 µM.

In the case of `Nc1nc(F)nc2c1ncn2[C@@H]1O[C@H](COP(=O)(O)O)[C@@H](O)[C@@H]1O` [FLUDARABINE PHOSPHATE], the AC50 (in test [1]; in [2]; in test [3]; on Histamine H2 receptor; at Adenosine receptor A1; at Melanocortin receptor 4) was over 30 µM in each case. The AC50 (in test [4]; on Cannabinoid receptor 1; in test [5]; in test [6]; at Vasopressin V1a receptor) was over 30 µM each time.

For `Nc1ccn([C@@H]2O[C@H](CO)[C@@H](O)C2(F)F)c(=O)n1` [GEMCITABINE], the AC50 at Mu-type opioid receptor was over 30 µM; in test [1], over 30 µM; in test [2] it was over 10 µM; in test [3], over 30 µM; on Histamine H2 receptor, over 10 µM; at Adenosine receptor A1 it was over 30 µM. The AC50 was over 30 µM at Melanocortin receptor 4; over 10 µM in test [4]; over 10 µM in test [5]; over 30 µM in [6]; over 30 µM at Vasopressin V1a receptor.

For the compound `CC#CCn1c(N2CCC[C@@H](N)C2)nc2c1c(=O)n(Cc1nc(C)c3ccccc3n1)c(=O)n2C` [LINAGLIPTIN], the AC50 on Mu-type opioid receptor is over 30 µM; in test [1] it was over 10 µM; in test [2], over 10 µM; in test [3] it was over 30 µM; on Histamine H2 receptor, over 10 µM; at Adenosine receptor A1 it was over 30 µM. Further, the AC50 was 41.8 µM at Melanocortin receptor 4; over 10 µM in test [4]; over 10 µM on Cannabinoid receptor 1; over 10 µM in [5]; over 30 µM at Vasopressin V1a receptor.

As for `O=C1CN=C(c2ccccc2)c2cc(Cl)ccc2N1` [NORDAZEPAM], the AC50 on Mu-type opioid receptor is over 10 µM; in test [1], over 10 µM; in [2], 0.049 µM; in test [3] it was over 30 µM; on Histamine H2 receptor, over 10 µM; on Adenosine receptor A1 it was over 30 µM. The concentration at half-maximal activity (AC50) on Melanocortin receptor 4 is over 30 µM; in [4] it was over 10 µM; at Cannabinoid receptor 1, over 10 µM; in test [5], over 10 µM; on Vasopressin V1a receptor, over 10 µM.

Turning to `CC(CCc1ccccc1)NC(C)C(O)c1ccc(O)cc1` (stereo not drawn) [NYLIDRIN], the AC50 on Mu-type opioid receptor is 9.9 µM; in test [1] it was over 10 µM; in [2] it was over 10 µM; in test [3] it was over 30 µM; on Histamine H2 receptor it was over 10 µM; at Adenosine receptor A1, over 30 µM. The AC50 at Melanocortin receptor 4 is over 30 µM; in test [4], 0.64 µM; at Cannabinoid receptor 1, over 10 µM; in [5] it was over 10 µM; at Vasopressin V1a receptor, over 10 µM.

`CC(=O)O[C@H]1C[C@@H]2CC[C@@H]3[C@H](CC[C@@]4(C)[C@H]3C[C@H]([N+]3(C)CCCCC3)[C@@H]4OC(C)=O)[C@@]2(C)C[C@@H]1[N+]1(C)CCCCC1` [PANCURONIUM]: the AC50 at Mu-type opioid receptor is over 30 µM; in [1], over 30 µM; in test [2] it was over 10 µM; in [3] it was over 30 µM; on Histamine H2 receptor, over 10 µM; on Adenosine receptor A1, over 10 µM. The AC50 (at Melanocortin receptor 4; in [4]; on Cannabinoid receptor 1; in test [5]; at Vasopressin V1a receptor) was over 10 µM throughout.

Turning to `CC1(C)C(C=C(Cl)Cl)C1C(=O)OCc1cccc(Oc2ccccc2)c1` (stereo not drawn) [PERMETHRIN], the AC50 at Mu-type opioid receptor was over 30 µM; in test [1] it was over 30 µM; in test [2], over 10 µM; in test [3], over 30 µM; at Histamine H2 receptor it was over 10 µM; on Adenosine receptor A1 it was over 10 µM. Further, the AC50 at Melanocortin receptor 4 is over 10 µM; in test [4] it was over 10 µM; at Cannabinoid receptor 1, 18.2 µM; in test [5], over 10 µM; at Vasopressin V1a receptor it was over 10 µM.
